The values that follow come from patent US8017581B1, “MSH-agonist tripeptide conjugates” (Centre National de la Recherche Scientifique (CNRS), priority 2004, dated 2011).

Non-standard residues stand in square brackets, D forms with d. Residues, ends and D or L forms follow the SMILES beside them. *: point of attachment. Palmitoyl = CCCCCCCCCCCCCCCC(=O)*; Nle = CCCC[C@H](N)C(=O)O

Experiment [1] has as its target T1, MC1 receptor (Homo sapiens, UniProt Q01726).
T1 construct: endogenous in cells; host or cells: M4Be human melanocyte cell line
The experiment is described as follows: cAMP production in M4Be human melanocyte cells (EC50 determination). As to conditions: mean of at least two sets of independent experiments. Format: cell-based. The procedure:
The M4Be human cell line (Jacubovich et al. Cancer Immunol. Immunother. 1979, 7, 59-64), a melanocyte cell line capable of producing melanins, was used in this study to determine the EC50 values.
The cells were maintained in Dulbecco's modified Eagle medium, with 10% of FCS, 1 mM of glutamine, 100 U/ml of penicillin and 10^−4 g/ml of streptomycin. All the cell lines were maintained at 37° C. in a 5% CO2 atmosphere, and the cell culture media were renewed every two days. The cells were plated onto a 96-well plate (Nunc, Roskilde, Denmark) 24 hours before contact with the peptides.
(§1) Briefly, the cells plated out the day before were incubated for 1 hour with 10^−4 M of adenine (Sigma) and then for 10 minutes in Krebs Ringer Hepes medium with 10^−4 M of isobutyl-1-methylxanthine (Sigma), 10^−4 M of 4-[(3-butoxy-4-methoxyphenyl)methyl]-2-imidazolidinone (Calbiochem) and tripeptides according to the invention, at 10^−7 M.
(§2) After this period of time, cell lysis was carried out according to the manufacturer's protocol.
The cAMP content was measured using a competition binding assay kit (RPN225, Amersham Pharmacia Biotech) according to the manufacturer's instructions. Each independent experiment was carried out at least twice in triplicate.
Determination of the EC50:
The curves were adjusted and the EC50 values were determined with nonlinear regression in the GraphPad Prism (GraphPad software). Each EC50 value was the mean of at least two sets of independent experiments.

Experiment [2] concerns the target T2, MC1 receptor (Mus musculus, UniProt Q01727).
T2 construct: The Cloudman S91 mouse melanoma cell line (Yasumara et al. Science. 154, pages 1186-1189) was used for the preliminary screening; endogenous in cells; host or cells: Cloudman S91 mouse melanoma cells
The experiment is described as follows: cAMP induction on Cloudman S91 mouse melanoma cell line (preliminary screening). Format: cell-based. As to conditions: tripeptide at 50 nM, percentage of the maximum response with control peptide (1) at 50 nM. The procedure:
The Cloudman S91 mouse melanoma cell line (Yasumara et al. Science. 154, pages 1186-1189) was used for the preliminary screening. The cells were maintained in HAM F10 with 10% of horse serum, 2% of fetal calf serum (FCS), 1 mM of glutamine, 100 U/ml of penicillin and 10^−4 g/ml of streptomycin (Eurobio, Les Ulis, France). All the cell lines were maintained at 37° C. in a 5% CO2 atmosphere, and the cell culture media were renewed every two days. The cells were plated out onto a 96-well plate (Nunc, Roskilde, Denmark) 24 hours before contact with the peptides.
as §1, §2
The cAMP content was measured using a competition binding assay kit (RPN225, Amersham Pharmacia Biotech) according to the manufacturer's instructions. […]
Thus, 1 tripeptide according to the invention was tested, at a concentration of 50 nM, on the induction of cAMP, which was calculated with respect to the response of cAMP production induced by α-MSH (50 nM).

T1 sequence (Q01726 whole entry): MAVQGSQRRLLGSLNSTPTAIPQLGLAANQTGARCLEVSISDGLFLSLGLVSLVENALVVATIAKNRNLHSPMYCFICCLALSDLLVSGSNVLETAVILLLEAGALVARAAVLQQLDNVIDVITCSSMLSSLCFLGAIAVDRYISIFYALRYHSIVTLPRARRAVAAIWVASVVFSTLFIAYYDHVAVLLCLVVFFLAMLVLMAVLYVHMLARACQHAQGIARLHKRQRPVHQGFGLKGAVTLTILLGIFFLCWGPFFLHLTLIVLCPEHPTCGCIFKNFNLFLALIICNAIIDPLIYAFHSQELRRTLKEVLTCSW
T2 sequence (Q01727 whole entry): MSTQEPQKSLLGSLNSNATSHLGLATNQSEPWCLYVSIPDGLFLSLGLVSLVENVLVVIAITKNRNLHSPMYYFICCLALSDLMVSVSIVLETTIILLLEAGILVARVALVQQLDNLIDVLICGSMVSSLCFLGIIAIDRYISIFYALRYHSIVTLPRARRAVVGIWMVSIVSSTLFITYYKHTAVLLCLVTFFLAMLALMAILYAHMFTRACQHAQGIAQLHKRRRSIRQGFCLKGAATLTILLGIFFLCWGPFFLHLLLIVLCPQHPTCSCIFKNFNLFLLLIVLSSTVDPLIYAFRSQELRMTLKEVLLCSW

For the compound `CCCC[C@H](NC(C)=O)C(=O)N[C@@H](C)C(=O)N[C@@H](Cc1c[nH]cn1)C(=O)N[C@H](Cc1ccccc1)C(=O)N[C@@H](CCCNC(=N)N)C(=O)N[C@@H](Cc1c[nH]c2ccccc12)C(N)=O` [control peptide, Ac-Nle-Ala-His-(D)Phe-Arg-Trp-NH2, reference compound] (Ac-[Nle]AH[dF]RW-NH2), the EC50 in experiment [1] was 4 nM. In other words, the single-digit nanomolar range. For the compound `CCCCCCCCCCCCCCCC(=O)N[C@@H](Cc1c[nH]cn1)C(=O)N[C@H](Cc1ccccc1)C(=O)N[C@@H](CCCNC(=N)N)C(N)=O` [tripeptide 1, Palm-His-DPhe-Arg-NH2] (Palmitoyl-His-[dF]-Arg-NH2), the “% cAMP induction” value in experiment [2] is on record as 147%. The same compound displayed an EC50 in experiment [1] of 2.3 nM. `CCCCCCCCCCCCCCCC(=O)N[C@@H](Cc1c[nH]cn1)C(=O)N[C@H](Cc1ccccc1)C(=O)N[C@@H](Cc1c[nH]c2ccccc12)C(N)=O` [tripeptide 2, Palm-His-DPhe-Trp-NH2] (Palmitoyl-His-[dF]-Trp-NH2): the midpoint of the response in experiment [1], the EC50, lay at 17.3 nM.
